Assay results as given in PMC6832836 (Toxins, 2019).

Experiments:
[1] = tested on: CE of recombinant pET30a(+)/BL21(DE3); type: in vitro ADME, E. coli; details: CE of pET30a(+)/BL21(DE3) added at 12 h; PBS; 30 °C; HPLC-UV 238 nm; Figure S1
Procedure: The experiments were carried out with five treatments as following: • Control groups for treatment A and treatment C: the CEs of recombinant bacteria pGEX-4T-1/BL21(DE3) without protein USTB-05-A and recombinant bacteria pET30a(+)/BL21(DE3) without protein USTB-05-C were added into two tubes with PBS containing NOD, respectively. • Treatment A: the CE of recombinant bacteria pGEX-4T-1/USTB-05-A/BL21(DE3) containing crude protein USTB-05-A was added into PBS containing NOD. • Treatment C: the CE of recombinant bacteria pET30a(+)/USTB-05-C/BL21(DE3) containing crude protein USTB-05-C was added into PBS containing NOD. • Treatment AC: at 0 h, the CE containing crude protein USTB-05-A was added into PBS containing NOD. At 12 h, the CE containing crude protein USTB-05-C was added to the above solution. • Control group for treatment A and treatment C: at 0 h, the CE containing crude protein USTB-05-A was added into the test tubes with PBS containing NOD. At 12 h, the CE of pET30a(+)/BL21(DE3) without protein USTB-05-C was added to the above solution. […]
The concentration of NOD was detected by high performance liquid chromatography (HPLC) (LC10ATVP, Shimadzu Co., Ltd., Tokyo, Japan) with a UV diode array detector at 238 nm. […] The spectra of NOD and its biodegradation products were detected at the time of HPLC analysis.

USTB-05-A = details: initial NOD 13.7 mg L^−1; CE protein 158 mg L^−1; PBS; 30 °C, 200 rpm; 12 h to 24 h; HPLC-UV 238 nm
USTB-05-C = details: CE protein 165 mg L^−1 added at 12 h; followed from 13 h until 24 h; PBS; 30 °C, 200 rpm; HPLC-UV 238 nm
[2] = tested on: cell-free extract (CE) of Sphingopyxis sp. USTB-05; details: cited from earlier work
USTB-05-A mutants = details: cited from earlier work
[3] = tested on: MlrA point mutants H260A and E265A; details: cited from earlier work

## C/C=C(/C(=O)N[C@@H](C(=O)O)[C@H](C)C(=O)N[C@@H](CCCNC(=N)N)C(=O)O)N(C)C(=O)CC[C@@H](NC(=O)[C@@H](C)[C@@H](N)/C=C/C(C)=C/[C@H](C)[C@H](Cc1ccccc1)OC)C(=O)O [product A]
[1]
  concentration of product A with control CE without USTB-05-C (control group of treatment AC): constant
USTB-05-A
  peaks after the first 12 h until 24 h with CE containing USTB-05-A only (treatment A): remained constant
USTB-05-C
  change of product A peak after addition of CE containing USTB-05-C (treatment AC): decreased and disappeared

## MC-YR
[2]
  time to complete elimination by CE: ≤ 10 h

## MC-LR
[2]
  time to complete biodegradation by CE: ≤ 3 h
USTB-05-A mutants
  MC-LR biodegradation by N264A mutant: significant decrease in MlrA activity
  MC-LR biodegradation by W176A and W201A mutants: decrease in the reaction rate to some extent
  MC-LR biodegradation by point mutants E172A, H205A and H260A: complete loss of enzymatic activity
[3]
  MC-LR biodegradation by MlrA point mutants H260A and E265A: no activity
